Results taken from ChEMBL document CHEMBL1131047, “Novel nonnucleoside inhibitors of HIV-1 reverse transcriptase. 7. 8-Arylethyldipyridodiazepinones as potent broad-spectrum inhibitors of wild-type and mutant enzymes” (J Med Chem, 1998).
pIC50: −log10 of the molar value.

Legend:
[1] = biological target: Human immunodeficiency virus type 1 reverse transcriptase (Human immunodeficiency virus 1, UniProt Q72547, Y188L); test: Inhibitory activity against HIV-1 Y188L reverse transcriptase.
[2] = biological target: Human immunodeficiency virus type 1 reverse transcriptase (Human immunodeficiency virus 1, UniProt Q72547); test: Inhibitory activity against HIV-1 wild-type reverse transcriptase.
[3] = biological target: Human immunodeficiency virus type 1 reverse transcriptase (Human immunodeficiency virus 1, UniProt Q72547, K103N); test: Inhibitory activity against HIV-1 Mutant Reverse transcriptase K103N
[4] = biological target: Human immunodeficiency virus type 1 reverse transcriptase (Human immunodeficiency virus 1, UniProt Q72547, V106A); test: Inhibitory activity against HIV-1 Mutant Reverse transcriptase V106A
[5] = biological target: Human immunodeficiency virus type 1 reverse transcriptase (Human immunodeficiency virus 1, UniProt Q72547, Y181C); test: Inhibitory activity against HIV-1 Y181C reverse transcriptase.
[6] = biological target: Human immunodeficiency virus type 1 reverse transcriptase (Human immunodeficiency virus 1, UniProt Q72547, P236L); test: Inhibitory activity against HIV-1 Mutant Reverse transcriptase P236L
[7] = biological target: Human immunodeficiency virus type 1 reverse transcriptase (Human immunodeficiency virus 1, UniProt Q72547, G190A); test: Inhibitory activity against HIV-1 Mutant Reverse transcriptase G190A
C8166 = test: Inhibitory activity against HIV-1 IIIB replication in C8166 cells.; assay type: functional, cell-based; conditions: Homo sapiens

| SMILES | pIC50 [1] | pIC50 [2] | pIC50 [5] | further results |
| --- | --- | --- | --- | --- |
| CCN1c2ncc(CCc3cccc(N)c3)cc2C(=O)N(C)c2ccc(Cl)nc21 | 6.60 | 6.92 | 6.64 | pIC50 [3]: 8.00; pIC50 [4]: 7.05; pIC50 [6]: 7.40; pIC50 [7]: 8.00 |
| CCN1c2ncc(CCc3ccnc(C)c3)cc2C(=O)N(C)c2ccc(Cl)nc21 | < 6.00 | 7.22 | 6.85 |  |
| CCN1c2ncc(CO)cc2C(=O)N(C)c2cccnc21 |  | 7.30 | 6.13 |  |
| CCN1c2ncc(-c3cccc(OC)c3)cc2C(=O)N(C)c2cccnc21 |  | < 6.00 | < 6.00 |  |
| CCN1c2ncc(/C=C\c3ccccc3)cc2C(=O)N(C)c2cccnc21 |  | 6.60 | 6.24 |  |
| CCN1c2ncc(CCc3ccncc3)cc2C(=O)N(C)c2ccc(F)nc21 | 6.60 | 7.30 | 7.10 | pIC50 [3]: 7.70; pIC50 [4]: 6.60; pIC50 [6]: 7.30; pIC50 [7]: 7.22 |
| CCN1c2ncc(CCCO)cc2C(=O)N(C)c2cccnc21 |  | 6.52 | 5.54 |  |
| CCN1c2ncc(CCc3cccc(NC(N)=O)c3)cc2C(=O)N(C)c2ccc(Cl)nc21 | 6.64 | 7.22 | 7.10 | pIC50 (C8166): 7.41 |
| CCN1c2ncc(C)cc2C(=O)N(C)c2cccnc21 |  | 6.12 | < 6.00 |  |
| CCN1c2ncc(CCc3cncnc3)cc2C(=O)N(C)c2cccnc21 | < 6.00 | 6.27 | < 6.00 |  |
| CCN1c2ncc(CCc3ccccc3)cc2C(=O)N(C)c2cccnc21 |  | 7.30 | 6.89 |  |
| CCN1c2ncc(CCC(=O)OC)cc2C(=O)N(C)c2cccnc21 |  | 7.05 | 6.85 |  |
| CCN1c2ncc(CCc3ccc(C)cc3)cc2C(=O)N(C)c2ccc(Cl)nc21 | < 6.00 | 6.64 | 5.93 |  |
| CCN1c2ncc(CCc3ccc(NS(C)(=O)=O)cc3)cc2C(=O)N(C)c2ccc(Cl)nc21 | < 6.00 | 6.48 | 6.25 |  |
| CCN1c2ncc(CCc3ccc4ccccc4c3)cc2C(=O)N(C)c2ccc(F)nc21 | < 6.00 | 7.70 | 7.52 |  |
| CCN1c2ncc(CCc3ccnc(C(=O)OC)c3)cc2C(=O)N(C)c2ccc(Cl)nc21 | 5.22 | 6.82 | 6.32 |  |
| CCN1c2ncc(CCc3cccnc3)cc2C(=O)N(C)c2cccnc21 | < 6.00 | 6.89 | 6.49 |  |
| CCN1c2ncc(CCc3cccc(N)c3)cc2C(=O)N(C)c2cccnc21 | < 6.00 | 7.40 | 7.15 |  |
| CCN1c2ncc(CCc3ccncc3)cc2C(=O)N(C)c2ccc(C#N)nc21 | < 6.00 | 6.34 | 6.54 |  |
| CCN1c2ncc(CCc3ccccn3)cc2C(=O)N(C)c2cccnc21 | < 6.00 | 6.72 | < 6.00 |  |
| CCN1c2ncc(CCc3cccc(C)c3)cc2C(=O)N(C)c2ccc(Cl)nc21 | < 6.00 | 6.96 | 6.34 |  |
| CCN1c2ncc(CCc3ccccc3)cc2C(=O)N(C)c2ccc(Cl)nc21 |  |  |  | pIC50 (C8166): 7.92 |
| CCN1c2ncc(CCc3cccc(F)c3)cc2C(=O)N(C)c2cccnc21 | < 6.00 | 6.92 | 6.43 |  |
| CCN1c2ncc(CCc3ccccc3N)cc2C(=O)N(C)c2cccnc21 | < 6.00 | 7.10 | 5.77 |  |
| CCN1c2ncc(CCc3ccccc3)cc2C(=O)N(C)c2ccc(C3=CCC=N3)nc21 | 5.89 | 6.23 | 6.28 |  |
| CCN1c2ncc(CCc3ccnc(C)c3)cc2C(=O)N(C)c2cccnc21 | < 6.00 | 7.52 | 7.05 |  |
| CCN1c2ncc(CCC(N)=O)cc2C(=O)N(C)c2cccnc21 |  | 6.21 | 5.21 |  |
| CCN1c2ncc(N)cc2C(=O)N(C)c2cccnc21 |  | 7.00 |  |  |

| SMILES | pIC50 [1] | pIC50 [2] | pIC50 [5] | further results |
| --- | --- | --- | --- | --- |
| CCN1c2ncc(CCc3ccnc(C(=O)O)c3)cc2C(=O)N(C)c2ccc(Cl)nc21 | < 6.00 | 5.82 | 5.42 |  |
| CCN1c2ncc(CCc3ccc4ccccc4c3)cc2C(=O)N(C)c2ccc(Cl)nc21 | < 6.00 | 5.99 | 5.54 |  |
| CCN1c2ncc(CCc3ccc(C)cc3)cc2C(=O)N(C)c2cccnc21 | < 6.00 | 7.00 | 6.60 |  |
| CCN1c2ncc(CCC#N)cc2C(=O)N(C)c2cccnc21 |  | 6.68 | 5.67 |  |
| CCN1c2ncc(Cc3ccccc3)cc2C(=O)N(C)c2cccnc21 |  | 6.92 | 5.92 |  |
| CCN1c2ncc(CCc3cccc(N=[N+]=[N-])c3)cc2C(=O)N(C)c2ccc(Cl)nc21 | < 6.00 | 7.10 | 6.80 |  |
| CCN1c2ncc(CCc3ccncc3)cc2C(=O)N(C)c2ccc(I)nc21 | 6.37 | 7.05 | 6.74 |  |
| CCN1c2ncc(CCc3cccc(C)c3)cc2C(=O)N(C)c2cccnc21 | < 6.00 | 6.96 | 6.55 |  |
| CCN1c2ncc(CCc3ccncc3)cc2C(=O)N(C)c2cccnc21 | < 6.00 | 7.52 | 6.96 | pIC50 (C8166): 7.60 |
| CCN1c2ncc(CCc3ccccc3C)cc2C(=O)N(C)c2cccnc21 | < 6.00 | 6.70 | 5.80 |  |
| CCN1c2ncc(CCc3ccncc3)cc2C(=O)N(C)c2ccc(Cl)nc21 |  |  |  | pIC50 (C8166): 8.05 |
| CCN1c2ncc(CCO)cc2C(=O)N(C)c2cccnc21 |  | 6.37 | 5.60 |  |
| CCN1c2ncc(CCc3ccc(N)cc3)cc2C(=O)N(C)c2cccnc21 | < 6.00 | 7.22 | 6.70 |  |
| CCN1c2ncc(CCc3ccnc(CO)c3)cc2C(=O)N(C)c2ccc(Cl)nc21 | < 6.00 | 6.80 | 6.55 |  |
| CCN1c2ncc(CCc3cccc(NS(C)(=O)=O)c3)cc2C(=O)N(C)c2ccc(Cl)nc21 | < 6.00 | 6.85 | 6.85 |  |
| CCN1c2ncc(/C=C/C(=O)OC)cc2C(=O)N(C)c2cccnc21 |  | < 6.00 |  |  |
| CCN1c2ncc(CCc3nccs3)cc2C(=O)N(C)c2cccnc21 | < 6.00 | 7.40 | 6.36 |  |
| CCN1c2ncc(CCc3ccccc3C)cc2C(=O)N(C)c2ccc(Cl)nc21 | < 6.00 | < 6.00 | < 6.00 |  |
| CCN1c2ncc(C(=O)O)cc2C(=O)N(C)c2cccnc21 |  | < 6.00 |  |  |
| CCN1c2ncc(CCc3ccnc(C(N)=O)c3)cc2C(=O)N(C)c2ccc(Cl)nc21 | 5.40 | 7.30 | 6.60 |  |
| CCN1c2ncc(CCCc3ccccc3)cc2C(=O)N(C)c2cccnc21 |  | 6.92 | 5.93 |  |
| CCN1c2ncc(CCc3ccc(N)cc3)cc2C(=O)N(C)c2ccc(Cl)nc21 | < 6.00 | 6.80 | 6.44 |  |
| CCN1c2ncccc2C(=O)N(C)c2cccnc21 |  | 7.05 |  |  |
| CCN1c2ncc(NC(N)=O)cc2C(=O)N(C)c2cccnc21 |  | 5.96 |  |  |
| CCN1c2ncc(CCc3ccc4ccccc4c3)cc2C(=O)N(C)c2cccnc21 | < 6.00 | 7.10 | 6.82 |  |
| CCN1c2ncc(Cl)cc2C(=O)N(C)c2cccnc21 |  | 6.27 | < 6.00 |  |
| CCN1c2ncc(/C=C/c3ccncc3)cc2C(=O)N(C)c2cccnc21 |  | 5.52 | < 6.00 |  |
